Literature values as cited in patent US6387949B1, “Substituted urea compounds useful in pain management” (AstraZeneca Canada Inc., priority 1998, dated 2002).

How the values were obtained:
[1] = background statement
δ receptor = δ receptor (Homo sapiens, UniProt P41143); conditions: background statement
Sequence of δ receptor (P41143 whole entry): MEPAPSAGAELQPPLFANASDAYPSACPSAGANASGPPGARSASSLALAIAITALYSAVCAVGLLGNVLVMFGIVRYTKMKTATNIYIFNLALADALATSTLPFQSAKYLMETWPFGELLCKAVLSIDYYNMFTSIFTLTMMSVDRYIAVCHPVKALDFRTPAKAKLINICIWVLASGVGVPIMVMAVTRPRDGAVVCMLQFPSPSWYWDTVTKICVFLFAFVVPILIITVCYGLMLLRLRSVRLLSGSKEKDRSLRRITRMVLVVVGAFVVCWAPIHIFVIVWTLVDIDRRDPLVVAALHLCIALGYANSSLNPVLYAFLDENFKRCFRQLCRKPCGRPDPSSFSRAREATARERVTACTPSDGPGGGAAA

SMILES: Oc1ccc2c3c1O[C@H]1c4[nH]c5ccccc5c4C[C@@]4(O)[C@@H](C2)N(CC2CC2)CC[C@]314 [naltrindole]
- analgesic activity [1]: no analgesic activity
- selectivity for the δ receptor vs. μ receptor binding (δ receptor): < 10 fold
